The text below walks through data of PubChem BioAssay AID330 (DTP/NCI, 2004).

The subject of this test is P388 leukemia ip, CD2F1 mice, survival T/C. The test can be described thus: NCI In Vivo Anticancer Drug Screen. Data for tumor model P388 Leukemia (intraperitoneal) in CD2F1 (CDF1) mice. The conditions noted are these: endpoint: median survival time, higher = longer survival. Put shortly:
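Mice carrying the transplanted tumor received test compound or vehicle. Survival was recorded in each group, and the value is the treated-group measurement divided by that of the vehicle-treated control group.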

Setting [1] is: dose: 25.0 mg/kg/injection, schedule: Q01DX009 (ip), vehicle: saline with Tween-80.
Where [2] appears, read: dose: 50.0 mg/kg/injection, schedule: Q01DX009 (ip), vehicle: saline with Tween-80.
Where [3] appears, read: dose: 50.0 mg/kg/injection, schedule: Q01DX005 (ip), vehicle: saline with Tween-80.
The mark [4] stands for this setting: dose: 100.0 mg/kg/injection, schedule: Q01DX005 (ip), vehicle: saline with Tween-80.
The mark [5] stands for this setting: dose: 200.0 mg/kg/injection, schedule: Q01DX005 (ip), vehicle: saline with Tween-80.
Where [6] appears, read: dose: 6.25 mg/kg/injection, schedule: Q01DX009 (ip), vehicle: saline.
[7] abbreviates: dose: 12.5 mg/kg/injection, schedule: Q01DX009 (ip), vehicle: saline.
Where [8] appears, read: dose: 25.0 mg/kg/injection, schedule: Q01DX009 (ip), vehicle: saline.
[9] abbreviates: dose: 50.0 mg/kg/injection, schedule: Q01DX009 (ip), vehicle: saline.
Setting [10] is: dose: 100.0 mg/kg/injection, schedule: Q01DX009 (ip), vehicle: saline.
Where [11] appears, read: dose: 200.0 mg/kg/injection, schedule: Q01DX009 (ip), vehicle: saline.
The mark [12] stands for this setting: dose: 60.0 mg/kg/injection, schedule: Q01DX005 (ip), vehicle: saline with Tween-80.

Where “and” joins values, the source holds several entries; their conditions need not be identical. Equal entries are not always repeated. Inconclusive results and toxic doses are left out.

In the case of `Clc1ccc(-n2nnc3cc(Cl)ccc32)c(Cl)c1`, the T/C reads like this: (dose: 6.25 mg/kg/injection, schedule: Q01DX005 (ip), vehicle: saline with Tween-80) 86 % of control and 96 % of control; (dose: 12.5 mg/kg/injection, schedule: Q01DX005 (ip), vehicle: saline with Tween-80) 94 % of control; (dose: 25.0 mg/kg/injection, schedule: Q01DX005 (ip), vehicle: saline with Tween-80) 90 % of control and 91 % of control; under setting [1], 103 % of control; under setting [2], 97 % of control; (dose: 100.0 mg/kg/injection, schedule: Q01DX009 (ip), vehicle: saline with Tween-80) 101 % of control.

For `OCC1CCCCC1(O)c1ccccc1` (stereo not drawn), the T/C by setting is: (dose: 50.0 mg/kg/injection, schedule: Q01DX001 (ip), vehicle: Klucel (hydroxypropylcellulose) (HPC)) 90 % of control; (dose: 100.0 mg/kg/injection, schedule: Q01DX001 (ip), vehicle: Klucel (hydroxypropylcellulose) (HPC)) 90 % of control; (dose: 200.0 mg/kg/injection, schedule: Q01DX001 (ip), vehicle: Klucel (hydroxypropylcellulose) (HPC)) 90 % of control.

`CCOC(=O)Nc1cc(N(C)CC(O)c2ccccc2)c(N)c(N)n1` (stereo not drawn): the T/C (dose: 50.0 mg/kg/injection, schedule: Q01DX001 (ip), vehicle: saline with Tween-80) was 104 % of control; the T/C (dose: 100.0 mg/kg/injection, schedule: Q01DX001 (ip), vehicle: saline with Tween-80) is 94 % of control; the T/C (dose: 200.0 mg/kg/injection, schedule: Q01DX001 (ip), vehicle: saline with Tween-80) was 94 % of control.

In the case of `CCOc1ccccc1N=Nc1c(-c2ccccc2)nn(C(=S)S)c1-c1ccccc1`, the T/C was 107 % of control under setting [3], 109 % of control under setting [4] and 110 % of control under setting [5].

`CC(O)C([NH-])C(=O)O.CC([NH-])C(=O)O.[Cu+2]` (stereo not drawn): the T/C by setting is: under setting [6], 94 % of control; under setting [7], 97 % of control; under setting [8], 94 % of control.

With `O=c1c2ccccc2c(=O)c2c1ccc1[nH]c3c(ccc4c(=O)c5ccccc5c(=O)c43)[nH]c12`, the T/C runs as follows: under setting [3], 95 % of control; under setting [4], 107 % of control; under setting [5], 104 % of control.

For the compound `CC1=CC(=O)C(O)C2(C)C1CC1OC(=O)C(O)C3(O)C4(C)OCC13C2C(O)C4O` (stereo not drawn), the T/C is, setting by setting: (dose: 0.19 mg/kg/injection, schedule: Q01DX009 (ip), vehicle: saline + alcohol) 102 % of control; (dose: 0.38 mg/kg/injection, schedule: Q01DX009 (ip), vehicle: saline + alcohol) 105 % of control; (dose: 0.75 mg/kg/injection, schedule: Q01DX009 (ip), vehicle: saline + alcohol) 119 % of control; (dose: 1.5 mg/kg/injection, schedule: Q01DX009 (ip), vehicle: saline + alcohol) 105 % of control and 112 % of control.

For the compound `C=C1C(=O)OC2CC3(C)OC3CCC3(C)OC3CC12` (stereo not drawn), the T/C was 105 % of control (dose: 7.75 mg/kg/injection, schedule: Q01DX005 (ip), vehicle: Klucel (hydroxypropylcellulose) (HPC)); 101 % of control (dose: 15.5 mg/kg/injection, schedule: Q01DX005 (ip), vehicle: Klucel (hydroxypropylcellulose) (HPC)); 109 % of control (dose: 31.0 mg/kg/injection, schedule: Q01DX005 (ip), vehicle: Klucel (hydroxypropylcellulose) (HPC)); 105 % of control (dose: 62.0 mg/kg/injection, schedule: Q01DX005 (ip), vehicle: Klucel (hydroxypropylcellulose) (HPC)).

Take `Nc1nc(N)nc(CCc2nc(N)nc(N)n2)n1`: the T/C is 103 % of control under setting [9], 88 % of control under setting [10] and 98 % of control under setting [11].

Take `Brc1ccc(C[N+]23CCN(CC2)CC3)cc1`: the T/C runs as follows: (dose: 12.5 mg/kg/injection, schedule: Q01DX009 (ip), vehicle: saline with Tween-80) 95 % of control; under setting [1], 90 % of control; under setting [2], 90 % of control.

With `CC(=O)Nc1ccc(C(=O)N/N=C/c2ccccc2O)cc1`, the T/C is 90 % of control (dose: 6.25 mg/kg/injection, schedule: Q01DX009 (ip), vehicle: Klucel (hydroxypropylcellulose) (HPC)); 93 % of control (dose: 12.5 mg/kg/injection, schedule: Q01DX009 (ip), vehicle: Klucel (hydroxypropylcellulose) (HPC)); 88 % of control (dose: 25.0 mg/kg/injection, schedule: Q01DX009 (ip), vehicle: Klucel (hydroxypropylcellulose) (HPC)).

In the case of `CC1CN=C(NS(=O)(=O)c2ccccc2)N1` (stereo not drawn), the T/C was 101 % of control under setting [9], 93 % of control under setting [10] and 92 % of control under setting [11].

As for `Cc1ccc(NC(=O)CCC(=O)C(C)C(=O)c2ccccc2)c(C)c1` (stereo not drawn), the T/C reads like this: under setting [3], 99 % of control; under setting [4], 97 % of control; under setting [5], 97 % of control.

Regarding `COc1cccc2c1C(=O)c1c(O)c3c(c(O)c1C2=O)C[C@@](O)(C(=O)COS(=O)(=O)c1ccc(C)cc1)C[C@@H]3OC1CC(N)C(O)C(C)O1` (stereo partly drawn), the T/C runs as follows: (dose: 0.78 mg/kg/injection, schedule: Q01DX009 (ip), vehicle: water) 164 % of control; (dose: 1.56 mg/kg/injection, schedule: Q01DX009 (ip), vehicle: water) 161 % of control; (dose: 3.13 mg/kg/injection, schedule: Q01DX009 (ip), vehicle: water) 158 % of control and 161 % of control; (dose: 6.25 mg/kg/injection, schedule: Q01DX009 (ip), vehicle: water) 155 % of control and 180 % of control; (dose: 12.5 mg/kg/injection, schedule: Q01DX009 (ip), vehicle: water) 89 % of control.

Consider `CCN(CC)N=Nc1ccc(NC(C)=O)cc1`, for which the T/C (dose: 6.25 mg/kg/injection, schedule: Q04DX003 (ip), vehicle: Klucel (hydroxypropylcellulose) (HPC)) was 102 % of control; the T/C (dose: 12.5 mg/kg/injection, schedule: Q04DX003 (ip), vehicle: Klucel (hydroxypropylcellulose) (HPC)) is 101 % of control; the T/C (dose: 25.0 mg/kg/injection, schedule: Q04DX003 (ip), vehicle: Klucel (hydroxypropylcellulose) (HPC)) was 102 % of control.

Regarding `CCOC(=O)C1(C)CCCC1N` (stereo not drawn), the T/C (dose: 60.0 mg/kg/injection, schedule: Q01DX005 (ip), vehicle: saline) is 92 % of control and the T/C (dose: 120.0 mg/kg/injection, schedule: Q01DX005 (ip), vehicle: saline) is 90 % of control.

As to `CN(C)c1cccc(NC(=O)CC#N)c1`, the T/C under setting [3] is 93 % of control and the T/C under setting [4] is 93 % of control.

In the case of `O=C1c2cccc3cc([N+](=O)[O-])cc(c23)C(=O)N1CCCNCCNCCCN1C(=O)c2cccc3cc([N+](=O)[O-])cc(c23)C1=O`, the T/C reads like this: under setting [3], 92 % of control; under setting [4], 154 % of control.

`O=C(Nc1ccccc1Cl)Oc1ccc(C(=O)c2ccccc2)cc1`: the T/C is 100 % of control (dose: 15.0 mg/kg/injection, schedule: Q01DX005 (ip), vehicle: saline with Tween-80); 97 % of control (dose: 30.0 mg/kg/injection, schedule: Q01DX005 (ip), vehicle: saline with Tween-80); 90 % of control under setting [12].

For `CC(C)(Sc1cc(Cl)c(Cl)c(Cl)c1)C(=O)OCCN1CCOCC1`, the T/C is, setting by setting: under setting [12], 101 % of control and 88 % of control; (dose: 120.0 mg/kg/injection, schedule: Q01DX005 (ip), vehicle: saline with Tween-80) 101 % of control; (dose: 240.0 mg/kg/injection, schedule: Q01DX005 (ip), vehicle: saline with Tween-80) 86 % of control and 94 % of control.

With `O=C(CCCc1ccccc1)N1CCOCC1`, the T/C is, setting by setting: (dose: 50.0 mg/kg/injection, schedule: Q01DX001 (ip), vehicle: saline sonified) 90 % of control; (dose: 100.0 mg/kg/injection, schedule: Q01DX001 (ip), vehicle: saline sonified) 109 % of control; (dose: 200.0 mg/kg/injection, schedule: Q01DX001 (ip), vehicle: saline sonified) 100 % of control.

Turning to `CN(C)CCCNC1=C(Cl)C(=O)C(NCCCN(C)C)=C(Cl)C1=O`, the T/C under setting [6] was 91 % of control, the T/C under setting [7] is 94 % of control, the T/C under setting [8] was 111 % of control and the T/C under setting [9] is 89 % of control.

In the case of `COC(=O)C1=C(C(=O)OC)[C]([Hg][CH3])(C(=O)c2ccccc2)N=N1` (stereo not drawn), the T/C was 93 % of control under setting [6], 103 % of control under setting [7] and 90 % of control under setting [8].

On to `CC1(C)OCC(C2OC3OC(C)(C)OC3/C2=N/NC(=O)c2cc3cc(OCc4ccccc4)ccc3[nH]2)O1` (stereo not drawn), for which the T/C by setting is: (dose: 6.25 mg/kg/injection, schedule: Q01DX005 (ip), vehicle: saline) 93 % of control; (dose: 12.5 mg/kg/injection, schedule: Q01DX005 (ip), vehicle: saline) 93 % of control; (dose: 25.0 mg/kg/injection, schedule: Q01DX005 (ip), vehicle: saline) 88 % of control; (dose: 200.0 mg/kg/injection, schedule: Q01DX005 (ip), vehicle: saline) 94 % of control.
